The text below walks through data of ChEMBL document CHEMBL5291721, “A preclinical secondary pharmacology resource illuminates target-adverse drug reaction associations of marketed drugs” (Nat Commun, 2023).

For experiment [1], the target named is T1, Gamma-aminobutyric acid receptor subunit alpha-1 (Rattus norvegicus, UniProt P62813).
The target of experiment [2] is T2, B1 bradykinin receptor (Homo sapiens, UniProt P46663).
T2 sequence (P46663 whole entry): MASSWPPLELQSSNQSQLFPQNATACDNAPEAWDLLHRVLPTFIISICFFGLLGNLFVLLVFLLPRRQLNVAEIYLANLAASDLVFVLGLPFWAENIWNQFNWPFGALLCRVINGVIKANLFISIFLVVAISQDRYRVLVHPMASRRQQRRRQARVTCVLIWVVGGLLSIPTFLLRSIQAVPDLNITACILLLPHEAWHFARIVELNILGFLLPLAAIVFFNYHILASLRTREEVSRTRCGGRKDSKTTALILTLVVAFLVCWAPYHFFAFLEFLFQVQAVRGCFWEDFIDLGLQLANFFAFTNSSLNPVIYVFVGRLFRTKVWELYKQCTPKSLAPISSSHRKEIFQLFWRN

Experiment [3] addresses T3, 5-hydroxytryptamine receptor 2C (Homo sapiens, UniProt P28335).
T3 sequence (P28335 whole entry): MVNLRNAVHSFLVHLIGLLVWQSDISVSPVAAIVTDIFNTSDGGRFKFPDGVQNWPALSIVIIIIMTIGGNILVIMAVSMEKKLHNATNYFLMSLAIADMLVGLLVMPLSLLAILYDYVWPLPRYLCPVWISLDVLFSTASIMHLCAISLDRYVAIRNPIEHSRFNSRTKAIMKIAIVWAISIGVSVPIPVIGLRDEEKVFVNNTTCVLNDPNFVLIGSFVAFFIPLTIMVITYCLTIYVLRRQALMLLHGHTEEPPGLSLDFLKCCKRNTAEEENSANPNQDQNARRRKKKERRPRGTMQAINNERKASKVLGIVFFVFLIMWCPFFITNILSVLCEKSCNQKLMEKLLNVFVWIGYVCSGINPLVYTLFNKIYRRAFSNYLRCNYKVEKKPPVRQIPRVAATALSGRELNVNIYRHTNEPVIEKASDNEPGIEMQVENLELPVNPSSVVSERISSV

Experiment [4] addresses T1, Gamma-aminobutyric acid receptor subunit alpha-1. The class given is functional.
Experiment [5] has as its target Glucagon receptor (Homo sapiens, UniProt P47871).
For experiment [6], the target named is Substance-P receptor (Homo sapiens, UniProt P25103).
Experiment [7] deals with T4, Gastrin/cholecystokinin type B receptor (Homo sapiens, UniProt P32239).
T4 sequence (P32239 whole entry): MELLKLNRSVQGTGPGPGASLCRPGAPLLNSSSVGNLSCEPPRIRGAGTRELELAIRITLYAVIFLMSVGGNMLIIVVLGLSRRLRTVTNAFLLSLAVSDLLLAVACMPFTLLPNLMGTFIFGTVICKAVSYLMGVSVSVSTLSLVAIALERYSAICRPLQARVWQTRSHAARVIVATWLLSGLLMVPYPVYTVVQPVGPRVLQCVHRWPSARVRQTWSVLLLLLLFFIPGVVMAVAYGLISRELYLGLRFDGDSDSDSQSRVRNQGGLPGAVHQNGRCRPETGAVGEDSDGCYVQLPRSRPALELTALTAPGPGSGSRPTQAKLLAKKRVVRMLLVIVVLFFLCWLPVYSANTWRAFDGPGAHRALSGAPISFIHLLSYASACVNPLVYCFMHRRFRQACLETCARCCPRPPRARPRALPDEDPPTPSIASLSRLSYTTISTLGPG

For experiment [8], the target named is Kappa-type opioid receptor (Homo sapiens, UniProt P41145).
For experiment [9], the target named is T5, Alpha-2A adrenergic receptor (Homo sapiens, UniProt P08913).
T5 sequence (P08913 whole entry): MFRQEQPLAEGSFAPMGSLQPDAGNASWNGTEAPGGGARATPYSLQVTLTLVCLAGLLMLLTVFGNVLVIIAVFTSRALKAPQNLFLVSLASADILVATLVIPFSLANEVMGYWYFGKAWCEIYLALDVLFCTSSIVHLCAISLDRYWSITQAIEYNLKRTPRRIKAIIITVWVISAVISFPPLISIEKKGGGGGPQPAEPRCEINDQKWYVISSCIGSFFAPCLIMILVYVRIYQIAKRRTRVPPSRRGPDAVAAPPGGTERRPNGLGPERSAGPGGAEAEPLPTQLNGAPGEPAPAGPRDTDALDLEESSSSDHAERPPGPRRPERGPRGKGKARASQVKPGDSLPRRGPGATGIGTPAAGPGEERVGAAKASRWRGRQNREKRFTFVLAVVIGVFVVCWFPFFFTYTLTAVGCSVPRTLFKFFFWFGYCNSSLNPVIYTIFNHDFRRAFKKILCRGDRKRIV
Type of experiment: functional, cell-based.

For experiment [10], the target named is T6, 5-hydroxytryptamine receptor 1A (Homo sapiens, UniProt P08908).
T6 sequence (P08908 whole entry): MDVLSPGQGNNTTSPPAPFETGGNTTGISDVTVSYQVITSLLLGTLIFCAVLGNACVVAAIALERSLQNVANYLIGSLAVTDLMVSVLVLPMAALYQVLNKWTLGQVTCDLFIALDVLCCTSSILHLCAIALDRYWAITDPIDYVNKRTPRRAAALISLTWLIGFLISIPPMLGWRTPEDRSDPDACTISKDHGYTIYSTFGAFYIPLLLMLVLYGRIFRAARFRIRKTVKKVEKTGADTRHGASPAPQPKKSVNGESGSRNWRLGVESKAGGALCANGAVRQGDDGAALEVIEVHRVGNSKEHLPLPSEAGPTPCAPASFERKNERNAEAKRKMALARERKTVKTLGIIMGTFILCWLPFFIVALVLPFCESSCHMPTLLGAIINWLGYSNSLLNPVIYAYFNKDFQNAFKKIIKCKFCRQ
The class given is functional, cell-based.

Experiment [11] has as its target T5, Alpha-2A adrenergic receptor.
Experiment [12] addresses Mu-type opioid receptor (Homo sapiens, UniProt P35372). The experiment is described as follows: biochemical. The class given is functional.

A value given as a limit tells only on which side of the number the result lay.
Also: assay procedure not described here.

Sequence of Glucagon receptor (P47871 whole entry): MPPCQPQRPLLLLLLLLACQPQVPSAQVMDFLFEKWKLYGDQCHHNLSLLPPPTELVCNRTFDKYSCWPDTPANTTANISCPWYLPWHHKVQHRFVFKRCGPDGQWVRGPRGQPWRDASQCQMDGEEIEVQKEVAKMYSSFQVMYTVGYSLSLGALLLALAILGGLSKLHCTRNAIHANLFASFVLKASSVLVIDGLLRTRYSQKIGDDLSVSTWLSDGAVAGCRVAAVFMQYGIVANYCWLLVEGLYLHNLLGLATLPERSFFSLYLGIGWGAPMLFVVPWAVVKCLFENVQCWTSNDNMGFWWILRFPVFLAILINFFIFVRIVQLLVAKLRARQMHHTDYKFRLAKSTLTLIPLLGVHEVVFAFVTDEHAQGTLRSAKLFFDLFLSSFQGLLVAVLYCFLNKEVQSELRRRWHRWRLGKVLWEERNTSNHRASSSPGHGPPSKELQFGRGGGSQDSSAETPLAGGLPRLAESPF
Sequence of Substance-P receptor (P25103 whole entry): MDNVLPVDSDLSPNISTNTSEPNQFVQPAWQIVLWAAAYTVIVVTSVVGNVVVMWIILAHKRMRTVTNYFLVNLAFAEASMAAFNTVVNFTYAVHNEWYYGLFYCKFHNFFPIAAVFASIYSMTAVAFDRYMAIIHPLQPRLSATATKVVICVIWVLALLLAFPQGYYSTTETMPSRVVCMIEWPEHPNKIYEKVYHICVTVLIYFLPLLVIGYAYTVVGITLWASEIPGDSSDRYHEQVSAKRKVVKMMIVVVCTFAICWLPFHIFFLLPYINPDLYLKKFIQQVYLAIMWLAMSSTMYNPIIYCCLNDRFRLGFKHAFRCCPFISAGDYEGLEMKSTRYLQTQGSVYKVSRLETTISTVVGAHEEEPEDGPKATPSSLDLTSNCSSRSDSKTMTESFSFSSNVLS
Sequence of Kappa-type opioid receptor (P41145 whole entry): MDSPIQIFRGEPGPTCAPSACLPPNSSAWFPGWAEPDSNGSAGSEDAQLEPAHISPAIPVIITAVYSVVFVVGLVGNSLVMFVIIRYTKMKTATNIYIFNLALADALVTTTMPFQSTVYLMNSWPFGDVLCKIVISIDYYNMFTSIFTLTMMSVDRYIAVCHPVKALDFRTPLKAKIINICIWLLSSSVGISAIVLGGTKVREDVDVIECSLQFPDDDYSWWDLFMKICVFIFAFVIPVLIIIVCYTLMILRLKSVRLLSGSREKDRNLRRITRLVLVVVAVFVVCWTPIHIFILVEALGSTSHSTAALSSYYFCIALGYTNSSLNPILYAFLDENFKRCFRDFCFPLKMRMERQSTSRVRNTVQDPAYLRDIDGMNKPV
T1 sequence (P62813 whole entry): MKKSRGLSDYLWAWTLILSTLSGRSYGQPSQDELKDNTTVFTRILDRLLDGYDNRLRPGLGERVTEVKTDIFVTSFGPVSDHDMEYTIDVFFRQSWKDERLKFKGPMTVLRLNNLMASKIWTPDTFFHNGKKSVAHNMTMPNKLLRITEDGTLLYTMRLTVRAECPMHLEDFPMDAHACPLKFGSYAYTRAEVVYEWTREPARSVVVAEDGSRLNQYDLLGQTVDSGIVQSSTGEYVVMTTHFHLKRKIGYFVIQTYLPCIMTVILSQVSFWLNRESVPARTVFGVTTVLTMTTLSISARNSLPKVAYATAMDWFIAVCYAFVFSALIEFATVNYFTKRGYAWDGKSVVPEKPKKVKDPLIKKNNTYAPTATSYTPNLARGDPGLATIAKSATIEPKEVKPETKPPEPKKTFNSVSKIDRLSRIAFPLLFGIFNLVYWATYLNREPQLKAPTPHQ
Sequence of Mu-type opioid receptor (P35372 whole entry): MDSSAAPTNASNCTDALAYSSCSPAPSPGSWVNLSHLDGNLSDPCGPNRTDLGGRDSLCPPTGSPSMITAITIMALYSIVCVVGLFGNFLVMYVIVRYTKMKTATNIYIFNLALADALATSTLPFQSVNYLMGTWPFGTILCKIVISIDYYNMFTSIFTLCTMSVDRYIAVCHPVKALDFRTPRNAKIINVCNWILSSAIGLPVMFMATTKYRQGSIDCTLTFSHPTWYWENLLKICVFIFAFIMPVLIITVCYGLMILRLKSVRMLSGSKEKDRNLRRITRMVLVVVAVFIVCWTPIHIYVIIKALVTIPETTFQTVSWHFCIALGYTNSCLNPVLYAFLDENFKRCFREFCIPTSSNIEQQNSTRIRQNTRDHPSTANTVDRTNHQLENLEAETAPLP

Take `COc1ccc(C(=O)Nc2ccccc2CCC2CCCCN2C)cc1` (centres undefined) [ENCAINIDE]: the AC50 was over 10 µM in experiment [1]; over 30 µM in experiment [2]; 0.81 µM in [3]; over 10 µM in [4]; over 30 µM in experiment [5]; over 10 µM in [6]. The AC50 in experiment [7] was over 30 µM; in experiment [8], 3.6 µM; in [9], over 10 µM; in experiment [10], over 10 µM; in experiment [11], over 10 µM.

On to `O=[N+]([O-])O[C@@H]1CO[C@H]2[C@@H]1OC[C@@H]2O` [ISOSORBIDE MONONITRATE], for which the AC50 is over 10 µM in [1]; over 30 µM in experiment [2]; over 30 µM in [3]; over 10 µM in experiment [4]; over 30 µM in experiment [5]; over 10 µM in experiment [6]. The AC50 in experiment [7] was over 30 µM; in experiment [8], over 10 µM; in [9] it was over 10 µM; in [10] it was over 10 µM; in experiment [11], over 10 µM.

Consider `CCCCCNC(=N)N/N=C/c1c[nH]c2ccc(OC)cc12` [TEGASEROD], for which the AC50 is over 30 µM in [1]; over 30 µM in experiment [2]; 0.543 µM in experiment [3]; 13 µM in experiment [4]; over 30 µM in experiment [5]; over 10 µM in [6]. The AC50 was over 30 µM in experiment [7]; 4.9 µM in [8]; over 30 µM in [9]; over 30 µM in [10]; 0.31 µM in [11]; over 30 µM in [12].
